Experiment [1] has as its system castrated immature young rats. The experiment is described as follows: Adapted model of Hershberger's test (levator ani and ventral prostate weight). Type of experiment: in vivo, Sprague Dawley rats. The following applies: Rattus norvegicus, po, 96 h. On the procedure: The selective modulating activity of the androgen receptor was tested in a model of castrated immature young rats. This model, which is widely recognised for evaluating the anabolic effects of androgen compounds on the muscles and on the genitalia, has been described by Hershberger et al. 1953 Proc. Soc. Expt. Biol. Med. 83:175.
The method is based on the measurement of the well-known effects of androgens on the growth of the muscles and the accessory male sex organs in animals, and also in men. The consequences of castration appear in the form of a rapid involution and atrophy of the prostate and the seminal vesicles and of the anus-lifting muscle (levator ani). This effect may be completely compensated by an exogeneous administration of androgen, in particular of testosterone. The model is thus used to determine the capacity of the tested molecules to maintain the weight of the accessory sex and muscle organs in immature castrated rats, and therefore their androgenic efficacy.
Immature young Sprague Dawley rats (4 to 5 weeks old) weighing approximately 140-160 g (Charles River, Les Oncins, FRANCE) were distributed randomly in various groups and were kept in an environment at 22±2° C. with an alternating day/night cycle of 12 hours and ad libitum access to food and drink.
On day 0, that is, seven days before commencement of the first treatment, the rats were weighed individually then anaesthetised with an intraperitoneal dose of Ketamine/xylazine (85/15 mg/kg, approximately 2 ml/kg). Each animal was then placed on a sterile field and the abdomen and the scrotum were disinfected with Betadine and 70% alcohol. In the case of the orchidectomised control animals (ORX), the testicles were removed via an incision in the middle of the scrotum. A sterile suture was then made to ligature the supra-testicular portion of the tissue prior to surgical section of each testicle. The groups of animals to be treated by the tested compounds were operated on in an identical manner. In the case of the intact control animals (SHAM), the testicles were similarly extracted and reintroduced delicately to their original location. The site of surgical intervention was then sutured using sterile suture thread, and the site was disinfected again by application of Betadine. Each animal was then kept under a sterile pad until it awoke, before being returned to its cage. The animals were kept in an environment at 22±2° C. with an alternating day/night cycle of 12 hours and ad libitum access to food and drink. The animals were treated with the molecules to be tested from post-surgery day 7 and until day 10 preceding sacrifice (day 11).
The rats were split into groups and treated daily from day 7 to day 10 under the conditions defined below: • 1. SHAM control group: Vehicle (0.5% aqueous methyl cellulose) administered per os. • 2. ORX control group: Vehicle (0.5% aqueous methyl cellulose) administered per os. • 3. Treated ORX group: The tested compounds were administered individually per os in suspension in the vehicle described above, in a dose of 30 mg/kg.
After treatment for 4 successive days, the animals were decapitated using a guillotine. The levator ani and the ventral prostate were removed and weighed individually. For comparing inter-experimental data, the weight of each organ was standardised and expressed in milligrammes per 100 g of the weight of the animal (W). For each organ, the average of the standardised weights of the ORX control group was fixed by definition at 0% and the average of the standardised weights of the SHAM control group was fixed by definition at 100%. The efficacy of each product was expressed as a percentage and calculated using the following formula: (Wtreated−WORX)/(WSHAM−WORX)×100 A subsequent ANOVA test was used for statistical analysis to identify the differences between groups.

Experiment [2] concerns castrated C57/B16J male mice. The experiment is described as follows: Model of osteoporosis in male mice (trabecular BMD of tibia). Type of experiment: in vivo. The following applies: Mus musculus, sc, 672 h, ORX mice, 30 mg/kg subcutaneously daily, day 1 to 28, ORX = 0%, SHAM = 100%, read-out: efficacy in protecting mineral bone density. As for the experimental part:
C57/B16J male mice aged 12 weeks and weighing approximately 20-25 g (Charles River, Les Oncins, FRANCE) were operated on as described above with regard to the rats. Castration mimicked the bone loss caused by androgen deficit. The aim of the study is to evaluate the capacity of the compounds to preserve and/or increase the bone mass. This is evaluated by measuring the bone mineral density (BMD). This model has previously been documented by Sims et al. 2003 J. Clin. Invest. 111(9):1319-27.
The animals were separated randomly into various groups and were kept in an environment at 22±2° C. with an alternating day/night cycle of 12 hours and ad libitum access to food and drink.
The tested compounds were administered from post-surgery day 1 and until day 28 preceding sacrifice (day 29). The mice were treated daily under the conditions defined below: • 1. SHAM control group: Vehicle (10/90 ethanol/corn oil mixture) administered subcutaneously. • 2. ORX control group: Vehicle (10/90 ethanol/corn oil mixture) administered subcutaneously. • 3. Treated ORX group: The tested compounds were administered individually subcutaneously in the vehicle described above, in a dose of 30 mg/kg.
During necropsy, the mice were first weighed then decapitated. The two hindlimbs were then carefully disarticulated at the femoral neck. The right hindlimb was frozen at −20° C. Densitometric quantitative analysis was performed on the trabecular portion of the tibia proximal metaphysis using a tomo densitometer (Stratec SA+, Hologic, Norland).
The average of the trabecular BMD of the mice in the ORX control group was defined as 0%. The average of the trabecular BMD of the mice in the SHAM control group was defined as 100%. The efficacy of each product as a percentage was calculated using the formula: (BMDtreated−BMDORX)/(BMDSHAM−BMDORX)×100
A subsequent ANOVA test was used for statistical analysis to identify the differences between groups.

[3] abbreviates: ORX rats, 30 mg/kg per os, 4 successive days, ORX = 0%, SHAM = 100%, read-out: anabolic protection efficacy with regard to levator ani.
Where [4] appears, read: ORX rats, 30 mg/kg per os, 4 successive days, ventral prostate, ORX = 0%, SHAM = 100%, read-out: androgenic efficacy with regard to the prostate.
[5] abbreviates: read-out: anabolic protection efficacy with regard to levator ani.
Where [6] appears, read: read-out: androgenic efficacy with regard to the prostate.

Like-named read-outs stand apart in the source and are kept apart here.

`CN1C(=O)N(c2ccc(Cl)c(Cl)c2)C(=O)C1c1ccc(O)cc1` (stereo not drawn) [Example 1, 1-(3,4-dichlorophenyl)-4-(4-hydroxyphenyl)-3-methylimidazolidine-2,5-dione]: the results for the inhibition in vivo at 30 mg/kg in experiment [1] (setting [3]), in experiment [1] (setting [4]) and in experiment [2] were 50 to 140%, 5 to 70% and 40 to 130%, respectively.

On to `C=CCN1C(=O)N(c2ccc(Cl)c(Cl)c2)C(=O)C1c1ccc(O)cc1` (stereo not drawn) [Example 3, 1-(3,4-dichlorophenyl)-4-(4-hydroxyphenyl)-3-(2-propenyl)imidazolidine-2,5-dione], for which the inhibition in vivo at 30 mg/kg in experiment [1] (setting [3]) was 50 to 140%; in experiment [1] (setting [4]), 5 to 70%; in experiment [2], 40 to 130%.

Take `C#CCN1C(=O)N(c2ccc(C#N)c(C(F)(F)F)c2)C(=O)C1c1ccc(O)cc1` (stereo not drawn) [Example 4, 4-[2,5-dioxo-4-(4-hydroxyphenyl)-3-(2-propynyl)imidazolidin-1-yl]-2-trifluoromethylbenzonitrile]: the inhibition in vivo at 30 mg/kg in experiment [1] (setting [5]) is 50 to 140%; in experiment [1] (setting [6]) it was 5 to 70%; in experiment [2], 40 to 130%.

For `CN1C(=O)N(c2ccc(C#N)c(C(F)(F)F)c2)C(=O)C1(C)c1ccc(O)cc1` (stereo not drawn) [Example 5, 4-[3,4-dimethyl-2,5-dioxo-4-(4-hydroxyphenyl)imidazolidin-1-yl]-2-trifluoromethylbenzonitrile], the inhibition in vivo at 30 mg/kg in experiment [1] (setting [5]) lay within 50 to 140%; in experiment [1] (setting [6]), 5 to 70%; in experiment [2], 40 to 130%.

For `C#CCN1C(=O)N(c2ccc(C#N)c(C(F)(F)F)c2)C(=O)C1(C)c1ccc(O)cc1` (stereo not drawn) [Example 6, 4-[2,5-dioxo-4-(4-hydroxyphenyl)-4-methyl-3-(2-propynyl)imidazolidin-1-yl]-2-trifluoromethylbenzonitrile], the results for the inhibition in vivo at 30 mg/kg in experiment [1] (setting [5]), in experiment [1] (setting [6]) and in experiment [2] were 50 to 140%, 5 to 70% and 40 to 130%, respectively.

For `CN1C(=O)N(c2ccc(C#N)c(C(F)(F)F)c2)C(=O)[C@@]1(C)c1ccc(O)cc1` [Example 155, (R)-4-[3,4-dimethyl-2,5-dioxo-4-(4-hydroxyphenyl)imidazolidin-1-yl]-2-trifluoromethylbenzonitrile], the inhibition in vivo at 30 mg/kg in experiment [1] (setting [5]) was in the range of 50 to 140%; in experiment [1] (setting [6]), 5 to 70%; in experiment [2], 40 to 130%.

`CC#CCN1C(=O)N(c2ccc(C#N)c(C(F)(F)F)c2)C(=O)C1(C)c1ccc(O)cc1` (stereo not drawn) [Example 220, 4-[3-(2-butynyl)-4-(4-hydroxyphenyl)-4-methyl-2,5-dioxoimidazolidin-1-yl]-2-trifluoromethylbenzonitrile]: the inhibition in vivo at 30 mg/kg in experiment [1] (setting [5]) was in the range of 50 to 140%; in experiment [1] (setting [6]) it was 5 to 70%; in experiment [2] it was 40 to 130%.
